Test results from patent US5976797A, “Method for quantifying total mRNA with poly(A)-complementary oligonucleotide-immobilized microtiter plate” (Hitachi Chemical Co., Ltd., priority 1996, dated 1999).
Converted amounts (≈) assume the structure as drawn.

What was measured:
[1] = system: U937 human histiocytic lymphomas cell line; experiment: MTT assay, U937 cells; format: cell-based; settings: for IC50 (MTT) / IC50: mean ± SD, n = 4; for IC50: Homo sapiens, U-937
Method: (§1) The CaR-1 human colon cancer cell line (JCRB0207) was a gift from Dr. K. Miyazaki (Kihara Institute for Biological Research, Yokohama, Japan). YOYO-1™ was purchased from Molecular Probes (Eugene, Oreg.). All other chemicals were purchased from Sigma (St. Louis, Mis.). Oligonucleotides were synthesized by a synthesizer (Applied Biosystems, San Jose, Calif.) according to the manufacturer's protocol.
(§2) U937, HL-60 and CaR-1 cells were grown in RPMI 1640 containing 50 units/ml penicillin, 50 μg/ml streptomycin, and 10% FCS at 37° C. in 5% CO2, 95% air. HepG2 cells were grown in Eagle's minimum essential medium (MEM) with 0.1 mM nonessential amino acids, 1 mM sodium pyruvate and Earle's balance solution (BSS). Floating cells were subcultured two to three times a week and adherent cells were removed by trypsinization and subcultured two to four times a month. Initial cell viability was always more than 95% as assessed by the exclusion of trypan blue (Ausubel et al., Current Protocols in Molecular Biology, John Wiley & Sons 1988; 11.5.1-11.5.2). The number of cells was determined in a hemocytometer.
(§3) The following drugs have been tested using the reported peak plasma concentrations (PPCs) achieved during intravenous administration of clinical doses (Werner et al., Cancer Treat Rep 1986; 70:1379-1382). […] The drugs were tested at 0.001, 0.01, 0.1, 1.0 and 10× PPC. Vinblastine was occasionally tested at 100× PPC.
(§4) Cells were suspended in medium supplemented with 10% FCS, and 100 μl of single cell suspension containing 1×10^5 cells were added to the individual wells on 96 well microtiter plates. One hundred μl of anticancer drugs were added to each well to give the final concentrations as indicated above. The plates were incubated at 37° C. in a humidified atmosphere containing 5% CO2 in air for various periods. Twenty μl of 0.25% MTT in PBS was added to each well, and plates were incubated for an additional three hours. After centrifugation, supernatant solutions were removed and 200 μl of dimethyl sulfoxide were added to dissolve formazon products, and the plates were shaken for five minutes on a plate shaker (IS-963, Tomy, Palo Alto, Calif.). The absorbance of the well was read on a microplate spectrophotometer (Thermo max, Molecular Device, Mountain View, Calif.) using wavelength at 560 nm.
(§5) Chemosensitivity was assessed for both continuous drug exposure and transient exposure (two hours). Total cytosolic poly(A)+ mRNA was measured as described in the Methods.
(§6) U937 cells were seeded at a density of 1×10^6 cells/ml in RPMI containing 10% FCS in a 96-well plate for MTT assay (.gradient.,.quadrature.) and a 24-well plate for the mRNA assay (.circle-solid.,.tangle-soliddn.). […] The values indicated in the means±standard error of triplicate determinations from a single experiment. Similar results were reproduced in more than three independent experiments (data not shown). […] MTT and mRNA assays were carried out as described in the Methods. The data obtained from the three-day MTT assay with 1× PPC (x-axis) were compared with those of the 12-hour mRNA assay with 10× PPC (y-axis). FIG. 8D (Total) is a mixture of FIGS. 8A-8C. Each point represents the means of triplicate determinations.

[2] = system: HepG2 human hepatocellular line; experiment: total mRNA assay (GENEPLATE, YOYO-1), HepG2 cells; format: cell-based; settings: mean ± SD, n = 4; for IC50: Homo sapiens
Method: as §1, §2, §3
(§7) Detailed procedures were described in our previous publication (Tominaga et al., Clin. Chem. 1996; 42:11, 1750-1757). In brief, 1 ml of cell suspension containing 5×10^5 cells were plated to each well of 12-well tissue culture plates for various periods, and each drug was exposed continuously or for two hours. Harvested cultured cells were washed with PBS one to two times. Cells were then resuspended in 200 μl of diethylpyrocarbonate (DEPC) -treated lysis buffer (10 mM Tris, pH7.5, 1 mM EDTA, 0.5M NaCl, 0.5% NP-40 and 20 mM VRC for five minutes on ice, then immediately centrifuged at 15,000 xg at 4° C. for five minutes. Fifty μl each of the supernatant was applied to the GENEPLATE™ (oligonucleotide-immobilized microplate) (Mitsuhashi et al., Nature 1992, 357:519-520). After one hour incubation at room temperature, unbound non-mRNA was removed by aspiration and washed with a low salt buffer (10 mM Tris, pH 7.6, 1 mM EDTA, 0.1 M naCl) three times. Fifty μl of YOYO-1™ in the final dilution of 1:1000 in TAE buffer (40 mM Tris-acetate, pH 8.0, 1 mM EDTA) was added to each well, and the fluorescence intensity of each well was measured by a fluorescent plate reader (CytoFlour™ 2300, Millipore, Bedford, Mass.) with excitation and emission wavelengths of 485 nm (bandwidth 20 nm) and 530 nm (bandwidth 25 nm), respectively, as previously described (Glazer et al., Nature 1992;359:859-861 and Ogura et al., Biotechniques 1994; 18:231-232).
as §5

[3] = system: HL-60 human promyelocytic leukemia cell line; experiment: total mRNA assay (GENEPLATE, YOYO-1), HL-60 cells; format: cell-based; settings: mean ± SD, n = 4; for IC50: Homo sapiens, HL-60
Method: as §1, §2, §3, §7, §5

[4] = system: CaR-1 human colon cancer cell line; experiment: MTT assay, CaR-1 cells; format: cell-based; settings: mean ± SD, n = 4; for IC50: Homo sapiens
Method: as §1, §2, §3, §4, §5

[5] = system: U937 human histiocytic lymphomas cell line; experiment: total mRNA assay (GENEPLATE, YOYO-1), U937 cells; format: cell-based; settings: mean ± SD, n = 4; for IC50: Homo sapiens, U-937
Method: as §1, §2
The drugs were tested at 0.001, 0.01, 0.1, 1.0 and 10× PPC. Vinblastine was occasionally tested at 100× PPC.
as §7, §5, §6

[6] = system: HL-60 human promyelocytic leukemia cell line; experiment: MTT assay, HL-60 cells; format: cell-based; settings: mean ± SD, n = 4; for IC50: Homo sapiens, HL-60
Method: as §1, §2, §3, §4, §5

[7] = system: CaR-1 human colon cancer cell line; experiment: total mRNA assay (GENEPLATE, YOYO-1), CaR-1 cells; format: cell-based; settings: mean ± SD, n = 4; for IC50: Homo sapiens
Method: as §1, §2, §3, §7, §5

[8] = system: HepG2 human hepatocellular line; experiment: MTT assay, HepG2 cells; format: cell-based; settings: mean ± SD, n = 4; for IC50: Homo sapiens
Method: as §1, §2, §3, §4, §5

U937 cells = experiment: quantification of cytosolic mRNA after PMA-induced differentiation, U937 cells; format: cell-based, human
From the text: (§8) We obtained from the respective suppliers human Jurkat, Molt-4, U937, and HL-60 cells (American Type Culture Collection, Rockville, Md.); MICROFAST TRACK™ 228 Kit (mRNA purification kit using oligo-(dT) cellulose, (Invitrogen, San Diego, Calif.); cell culture media, fetal calf serum, (FCS: fatal calf serum), phosphate-buffered saline (PBS: phosphate-buffered saline), rabbit globin mRNA, and vanadyl-ribonucleosidecomplex (VRC: vanadyl-ribonucleoside complex; Gibco-BRL, Baithersburg, Md.); Isolymph (Gallard-Schlesinger, Carle Place, N.Y.); calf thymus DNA (Clontech, Palo Alto, Calif.); DNase (Boehringer Mannheim, Indianapolis, Ind.); RNase (Stratagene, La Jolla, Calif.); and GENEPLATE™ (oligonucleotide-immobilized microplate,(Hitachi Chemical Research Center, Irvine Calif. and Hitachi Chemical Co., Ibaraki, Japan). All other chemicals were purchased from Sigma Chemical Co. (St. Louis, Mis.). Oligonucleotides were synthesized by a synthesizer (Applied Biosystems, San Jose, Calif.), according to the manufacturer's protocol.
(§9) Human Jurkat and Molt-4 cells were grown in RPMI 1640 containing 100 U/mL penicillin, 100 μg/mL streptomycin, and 100 mL/L FCS at 37° C. in CO2 :air, 5:95 (by vol). […] Each cell line was subcultured two to three times a week, and viability was always >90%, as assessed by the exclusion of trypan blue. The number of cells was determined with a hemocytometer. […]

HL-60 cells = experiment: quantification of cytosolic mRNA after PMA-induced differentiation, HL-60 cells; format: cell-based, human
From the text: as §8, §9

[9] = U937, continuous exposure 72 hours
[10] = U937, transient exposure 2 hours
[11] = HepG2, continuous exposure, printed 82 hours
[12] = HepG2, transient exposure 2 hours
[13] = HL60, continuous exposure 72 hours
[14] = HL60, transient exposure 2 hours
[15] = CaR-1, continuous exposure 72 hours
[16] = CaR-1, transient exposure 2 hours
[17] = 48 h after PMA treatment (160 nmol/L), n=8, P<0.01
[18] = phorbol ester-induced differentiated

Compound | IC50 [1, 9] [µg/mL] | IC50 [1, 10] [µg/mL] | IC50 [2, 11] [µg/mL] | IC50 [2, 12] [µg/mL] | IC50 [3, 13] [µg/mL] | IC50 [3, 14] [µg/mL] | IC50 [4, 15] [µg/mL] | IC50 [4, 16] [µg/mL] | IC50 [5, 9] [µg/mL] | IC50 [5, 10] [µg/mL] | IC50 [6, 13] [µg/mL] | IC50 [6, 14] [µg/mL] | IC50 [7, 15] [µg/mL] | IC50 [7, 16] [µg/mL] | IC50 [8, 11] [µg/mL] | IC50 [8, 12] [µg/mL] | further results
N.N.[Cl][Pt][Cl] [Cisplatin, cisplatin] | – | – | – | – | – | – | – | – | – | – | – | – | – | – | – | – | time after drug treatment at which similar reduction was observed, MTT assay ([1]; U937, 10× PPC, continuous exposure): 48 h; IC50 (MTT) [1, 9]: 1.77 ± 0.05 µg/mL; IC50 (MTT) [1, 10]: 22.65 ± 0.03 µg/mL; IC50 (mRNA) [2, 11]: 9.81 ± 0.64 µg/mL; IC50 (mRNA) [2, 12]: > 20 µg/mL; IC50 (mRNA) [3, 13]: 1.21 µg/mL; IC50 (mRNA) [3, 14]: 9.30 µg/mL; IC50 (MTT) [4, 15]: 3.08 ± 0.54 µg/mL; IC50 (MTT) [4, 16]: > 20 µg/mL; IC50 (mRNA) [5, 9]: 1.58 ± 0.39 µg/mL; IC50 (mRNA) [5, 10]: 18.52 ± 4.69 µg/mL; IC50 (MTT) [6, 13]: 1.14 ± 0.01 µg/mL; IC50 (MTT) [6, 14]: 12.68 ± 0.30 µg/mL; IC50 (mRNA) [7, 15]: 3.09 ± 0.34 µg/mL; IC50 (mRNA) [7, 16]: > 20 µg/mL; IC50 (MTT) [8, 11]: 8.86 ± 0.40 µg/mL; IC50 (MTT) [8, 12]: > 20 µg/mL
CO[C@@]12[C@H](COC(N)=O)C3=C(C(=O)C(C)=C(N)C3=O)N1C[C@@H]1N[C@@H]12 [Mitomycin C, mitomycin C] | 0.29 ± 0.01 (≈ 0.867 µM) | 2.46 ± 0.04 (≈ 7.36 µM) | 1.89 ± 0.06 (≈ 5.65 µM) | 36.9 (≈ 110 µM) | 0.22 ± 0.01 (≈ 0.658 µM) | 2.29 (≈ 6.85 µM) | 2.12 ± 0.08 (≈ 6.34 µM) | 21.3 (≈ 63.7 µM) | 0.23 ± 0.03 (≈ 0.688 µM) | 2.01 ± 0.11 (≈ 6.01 µM) | 0.045 (≈ 0.135 µM) | 1.34 ± 0.01 (≈ 4.01 µM) | 2 ± 0.16 (≈ 5.98 µM) | 21.3 ± 0.95 (≈ 63.7 µM) | 2.08 ± 0.09 (≈ 6.22 µM) | 24.2 ± 0.81 (≈ 72.4 µM) | –
CCCCCCCCCCCCCC(=O)O[C@@H]1[C@@H](C)[C@@]2(O)[C@@H](C=C(CO)C[C@]3(O)C(=O)C(C)=C[C@@H]23)[C@@H]2C(C)(C)[C@]12OC(C)=O [PMA, phorbol 12-myristate 13-acetate] | – | – | – | – | – | – | – | – | – | – | – | – | – | – | – | – | mRNA content in 10^6 differentiated U937 cells (U937 cells; [17]): 145.3±13.9 μg/mL; amount of cytosolic mRNA in differentiated U937 cells (U937 cells; [18]): 145.3±13.9 ng/10^6 cells; mRNA content in 10^6 differentiated HL-60 cells (HL-60 cells; [17]): 164.7±11.6 μg/mL; amount of cytosolic mRNA in differentiated HL-60 cells (HL-60 cells; [18]): 164.7±11.6 ng/10^6 cells
CC[C@]1(O)C[C@@H]2CN(CCc3c([nH]c4ccccc34)[C@@](C(=O)OC)(c3cc4c(cc3OC)N(C)[C@H]3[C@@](O)(C(=O)OC)[C@H](OC(C)=O)[C@]5(CC)C=CCN6CC[C@]43[C@@H]65)C2)C1 [Vinblastine, vinblastine] | < 0.0005 | 0.034 ± 0.003 (≈ 0.0419 µM) | 3.45 ± 0.63 (≈ 4.25 µM) | 34.6 ± 1.75 (≈ 42.7 µM) | < 0.0005 | 0.031 (≈ 0.0382 µM) | 22.2 ± 14.4 (≈ 27.3 µM) | > 50 | < 0.0005 | 0.029 ± 0.001 (≈ 0.0358 µM) | < 0.0005 | 0.026 ± 0.001 (≈ 0.0321 µM) | 34.9 ± 4.8 (≈ 43 µM) | > 50 | 32.6 ± 8.46 (≈ 40.2 µM) | > 50 | –
